Results from ChEMBL document CHEMBL1201862, “PubChem BioAssay data set” (2004).
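96-well plates; 48 h exposure; 5 concentrations. Endpoints by linear interpolation between flanking doses. Not reached: highest tested concentration assigned. Abbreviation: GI50, concentration required for 50% inhibition of growth.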 The source made the active and inactive calls. Cut-off read from the data, not from the text of the source: active = GI50 up to about 1.1 µM and inactive = higher.

Legend:
Assay in all cases: NCI-60 cell line screen, 48 h
RXF 393 = tested on: RXF 393
OVCAR-5 = tested on: OVCAR-5
SNB-75 = tested on: SNB-75
BT-549 = tested on: BT-549
HOP-92 = tested on: HOP-92
SN12C = tested on: SN12C
SK-MEL-28 = tested on: SK-MEL-28
SNB-19 = tested on: SNB-19
MCF7 = tested on: MCF7
NCI-H226 = tested on: NCI-H226
ACHN = tested on: ACHN
786-0 = tested on: 786-0
DU-145 = tested on: DU-145
HCT-15 = tested on: HCT-15
A549 = tested on: A549
SK-MEL-2 = tested on: SK-MEL-2
K562 = tested on: K562
SF-539 = tested on: SF-539
NCI-H460 = tested on: NCI-H460

Compound: COc1cc(/C=C2\C[C@H]3[C@@H]4CC=C5C[C@@H](N6CCCC6)CC[C@]5(C)[C@H]4CC[C@]3(C)[C@H]2OC(C)=O)cc(OC)c1OC
- GI50 (RXF 393): 11.5 µM (inactive)
- GI50 (OVCAR-5): 15.8 µM (inactive)
- GI50 (SNB-75): 15.4 µM (inactive)
- GI50 (BT-549): 14.9 µM (inactive)
- GI50 (HOP-92): 10.3 µM (inactive)
- GI50 (SN12C): 14 µM (inactive)
- GI50 (SK-MEL-28): 19 µM (inactive)
- GI50 (SNB-19): 18.4 µM (inactive)
- GI50 (MCF7): 15.9 µM (inactive)
- GI50 (NCI-H226): 24.8 µM (inactive)
- GI50 (ACHN): 18.9 µM (inactive)
- GI50 (786-0): 11.3 µM (inactive)
- GI50 (DU-145): 17.3 µM (inactive)
- GI50 (HCT-15): 12.6 µM
- GI50 (A549): 15.3 µM (inactive)
- GI50 (SK-MEL-2): 17.7 µM (inactive)

Compound: COc1ccc(C2=NN=C3C(c4ccccc4)=Nc4ccccc4N3C2)cc1
- GI50 (RXF 393): 10.9 µM (inactive)
- GI50 (K562): 30.8 µM (inactive)
- GI50 (OVCAR-5): 54.2 µM (inactive)
- GI50 (SF-539): 28.1 µM (inactive)
- GI50 (BT-549): 40 µM (inactive)
- GI50 (HOP-92): 85.9 µM (inactive)
- GI50 (SN12C): 27.8 µM (inactive)
- GI50 (SK-MEL-28): 12 µM (inactive)
- GI50 (SNB-19): 23.8 µM (inactive)
- GI50 (MCF7): 21.7 µM (inactive)
- GI50 (NCI-H226): 41.6 µM (inactive)
- GI50 (ACHN): 14.1 µM (inactive)
- GI50 (NCI-H460): 22.1 µM (inactive)
- GI50 (786-0): 10.6 µM (inactive)
- GI50 (DU-145): 8.18 µM (inactive)
- GI50 (HCT-15): 16.9 µM
- GI50 (A549): 35.7 µM (inactive)
- GI50 (SK-MEL-2): 22.6 µM (inactive)

Compound: Cc1ccc(-c2cc(N)n(-c3nc4c(c(=O)n(C)c(=O)n4C)n3C)n2)cc1
- GI50 (RXF 393): > 100 µM (inactive)
- GI50 (K562): > 100 µM (inactive)
- GI50 (OVCAR-5): > 100 µM (inactive)
- GI50 (SF-539): 45.8 µM (inactive)
- GI50 (BT-549): > 100 µM (inactive)
- GI50 (HOP-92): > 100 µM (inactive)
- GI50 (SN12C): > 100 µM (inactive)
- GI50 (SK-MEL-28): 23.1 µM (inactive)
- GI50 (SNB-19): 94.4 µM (inactive)
- GI50 (MCF7): > 100 µM (inactive)
- GI50 (NCI-H226): 86.1 µM (inactive)
- GI50 (ACHN): > 100 µM (inactive)
- GI50 (NCI-H460): > 100 µM (inactive)
- GI50 (786-0): 42.2 µM (inactive)
- GI50 (DU-145): > 100 µM (inactive)
- GI50 (HCT-15): > 100 µM
- GI50 (A549): > 100 µM (inactive)
- GI50 (SK-MEL-2): > 100 µM (inactive)

Compound: COc1ccc2[nH]c3c(c2c1)CC(=S)N1CCCC(CC3=O)C1 (stereo not drawn)
- GI50 (RXF 393): 20.7 µM (inactive)
- GI50 (OVCAR-5): 64.9 µM (inactive)
- GI50 (SNB-75): 52.4 µM (inactive)
- GI50 (BT-549): > 100 µM (inactive)
- GI50 (HOP-92): > 100 µM (inactive)
- GI50 (SN12C): 63 µM (inactive)
- GI50 (SK-MEL-28): 86.9 µM (inactive)
- GI50 (SNB-19): 35.6 µM (inactive)
- GI50 (MCF7): 34.3 µM (inactive)
- GI50 (NCI-H226): 91.6 µM (inactive)
- GI50 (ACHN): 38.8 µM (inactive)
- GI50 (NCI-H460): 31.8 µM (inactive)
- GI50 (786-0): 58.2 µM (inactive)
- GI50 (DU-145): 62.4 µM (inactive)
- GI50 (HCT-15): 57.7 µM
- GI50 (A549): 32.4 µM (inactive)
- GI50 (SK-MEL-2): 29.3 µM (inactive)

Compound: CC1(C)C2CCC1(C)C(NC(=O)CCN1CCOCC1)C2 (stereo not drawn)
- GI50 (RXF 393): > 100 µM (inactive)
- GI50 (K562): > 100 µM (inactive)
- GI50 (OVCAR-5): > 100 µM (inactive)
- GI50 (SNB-75): > 100 µM (inactive)
- GI50 (SF-539): > 100 µM (inactive)
- GI50 (BT-549): > 100 µM (inactive)
- GI50 (HOP-92): > 100 µM (inactive)
- GI50 (SN12C): > 100 µM (inactive)
- GI50 (SK-MEL-28): > 100 µM (inactive)
- GI50 (SNB-19): > 100 µM (inactive)
- GI50 (MCF7): > 100 µM (inactive)
- GI50 (NCI-H226): > 100 µM (inactive)
- GI50 (ACHN): > 100 µM (inactive)
- GI50 (NCI-H460): > 100 µM (inactive)
- GI50 (786-0): > 100 µM (inactive)
- GI50 (DU-145): > 100 µM (inactive)
- GI50 (A549): > 100 µM (inactive)

Compound: Cc1ccc(Nc2nc(O)c3[nH]cnc3n2)cc1CO
- GI50 (RXF 393): 16.3 µM (inactive)
- GI50 (K562): 15.9 µM (inactive)
- GI50 (OVCAR-5): 18.9 µM (inactive)
- GI50 (SNB-75): 14.7 µM (inactive)
- GI50 (BT-549): 14.9 µM (inactive)
- GI50 (HOP-92): 8.79 µM (inactive)
- GI50 (SK-MEL-28): 17.8 µM (inactive)
- GI50 (SNB-19): 12.2 µM (inactive)
- GI50 (MCF7): 16.6 µM (inactive)
- GI50 (NCI-H226): 17.1 µM (inactive)
- GI50 (ACHN): 16 µM (inactive)
- GI50 (NCI-H460): 16.5 µM (inactive)
- GI50 (786-0): 15.7 µM (inactive)
- GI50 (DU-145): 19.5 µM (inactive)
- GI50 (HCT-15): 15.6 µM
- GI50 (A549): 3 µM (inactive)
- GI50 (SK-MEL-2): 16.6 µM (inactive)
